Source: ChEMBL document CHEMBL1150998, “Enzymatic resolution of AMPA by use of -chymotrypsin” (Bioorg Med Chem Lett, 1993)

Columns and labels:
[1] = target: Glutamate receptor ionotropic, AMPA (Rattus norvegicus, UniProt P19490+P19491+P19492+P19493); assay: Tested for the inhibitory activity of against Ionotropic glutamate receptor AMPA by [3H]- AMPA binding assay; type: protein-complex assay
Rattus norvegicus = organism: Rattus norvegicus; assay: Tested in vitro for the dose response curve in rat cortical wedge preparation

| IC50 [1] [µM] | Compound | EC50 (Rattus norvegicus) [µM] |
| --- | --- | --- |
| > 100 | CCOC(=O)C(N)Cc1c(OCC)noc1C (stereo not drawn) |  |
|  | Cc1onc(O)c1CC(N)C(=O)O (single isomer, unassigned; form 1) | 3.8 |
|  | Cc1onc(O)c1CC(N)C(=O)O (single isomer, unassigned; form 2) | 580 |
